Data published in publication PMC6720452, “Structural Basis for Recruitment of DAPK1 to the KLHL20 E3 Ligase” (Structure(London, England:1993), 2019).

Key:
Kelch domain of KEAP1 = settings: ref Tong et al., 2006; cited from earlier work
From the text: However, this is weaker than the low nanomolar binding observed for NRF2 interaction with the Kelch domain of KEAP1 ([Tong et al., 2006]). These differences may reflect the strict regulation of NRF2, which ensures its constitutive degradation, or the requirement for substrate co-adaptors as found for KLHL12 ([McGourty et al., 2016]). Alternatively, t ...

Kelch domain of KLHL20 = biological target: T1, Kelch domain of KLHL20 (Homo sapiens, UniProt Q9Y2M5); assay: Surface plasmon resonance, immobilized KLHL20; settings: SPR, BIACORE S200, CM5 chip, amine coupling, 25°C, HBS-P buffer, 30 μL/min, peptide 1.6-200 μM, one-site steady-state affinity; representative of two independent experiments; N.B., no binding detected
T1 construct: human KLHL20 (Uniprot Q9Y2M5 isoform 1, M303-E605); hexahistidine tag with TEV cleavage site (N); made in house; host or cells: E. coli BL21(DE3)R3-pRARE2
T1 sequence (Q9Y2M5 303-605): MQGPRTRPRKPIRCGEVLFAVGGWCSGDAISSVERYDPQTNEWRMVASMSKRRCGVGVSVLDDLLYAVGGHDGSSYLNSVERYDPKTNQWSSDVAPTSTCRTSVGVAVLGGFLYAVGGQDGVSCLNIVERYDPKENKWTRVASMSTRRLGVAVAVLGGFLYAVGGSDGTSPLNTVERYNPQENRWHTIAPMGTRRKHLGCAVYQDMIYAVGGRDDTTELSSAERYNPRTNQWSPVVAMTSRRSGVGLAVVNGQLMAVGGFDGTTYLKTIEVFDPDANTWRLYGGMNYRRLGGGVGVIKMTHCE
Experimental: (C) For SPR experiments, KLHL20 and KLHL3 Kelch domains were immobilized by amine coupling on different flow cells of a CM5 sensor chip. Indicated DAPK1 peptides were injected subsequently at concentrations of 1.6 μM, 3.1 μM, 6.2 μM, 12.5 μM, 25 μM, 50 μM, 100 μM, and 200 μM. Binding was monitored at a flow rate of 30 μL/min. […] Data were fitted using a steady-state affinity equation.
Assays were performed at 25°C using a BIACORE S200 (GE Healthcare) surface plasmon resonance (SPR) instrument. The Kelch domains of KLHL20 and KLHL3 were immobilized on sensor chip CM5 (GE Healthcare) using amine coupling. […] Binding was monitored using a flow rate of 30 μL/min. The peptide analytes were prepared in HBS-P buffer (GE Healthcare). Data reported were after reference flow cell signal subtraction. Data were analyzed by one-site steady-state affinity analysis using the Biacore S200 Evaluation software and the fitting equation Req=CRmax/KD+C+RI . (RI, bulk refractive index contribution; Rmax, maximum response; KD, dissociation constant; C, analyte concentration).

KD (μM), Immobilized Protein: KLHL20 (Kelch domain of KLHL20)	Substance	Binding affinity for KEAP1 Kelch domain (Kelch domain of KEAP1)
–	NRF2: NRF2, interaction with the Kelch domain of KEAP1	low nanomolar
N.B	SKLRELGRRDAADFLLKA [DAPK1 peptide spanning the C-terminal site residues 1,378–1,395]	–
